The values that follow come from US10005767B2, “Compositions and methods for inhibition of the JAK pathway” (Rigel Pharmaceuticals, Inc., priority 2009, dated 2018).

Each structure is given as a SMILES string. pIC50: −log10 of the molar value. Where a name gives a salt, the structure may show the parent alone. Read-outs that look alike come from different tables or passages of the source. A value given as a limit tells only on which side of the number the result lay.

The assay deals with human primary T-cells, IL-2 stimulated proliferation (JAK-1 and JAK-3 dependent; reported as JAK3 activity). Briefly: Human primary T-cell proliferation stimulated by IL-2 (Example 3). Format: cell-based. The note with it: tested under conditions described in Example 3 (IL-2 stimulated human primary T-cell proliferation), read-out: ability to inhibit JAK3 activity, IC50 range (Table V). The method, boiled down:
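Peripheral-blood human T-cells pre-activated via TCR/CD28, IL-2-starved overnight, then cultured 72 h at 37 °C with compound in Yssel's medium containing IL-2 (80 U/mL in cell suspension). Proliferation read as viable-cell ATP by CellTiter-Glo luminescence; reduction versus control taken as JAK pathway inhibition.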

As for `Cc1cnc(Nc2ccc(F)c(NS(C)(=O)=O)c2)nc1Nc1ccc2c(c1)oc(=O)n2C` [Compound I-89, N2-((4-fluoro-3-methylsulfonylamino)phenyl)-N4-(3-methyl-2-oxo-2,3-dihydrobenzo[d]oxazol-6-yl)-5-methylpyrimidine-2,4-diamine], the pIC50 is > 6.30.

Take `Cc1cnc(Nc2ccc3ccccc3c2)nc1Nc1ccc2oc(=O)[nH]c2c1` [IV-54, 5-[5-Methyl-2-(naphthalen-2-ylamino)-pyrimidin-4-ylamino]-3H-benzooxazol-2-one]: for the setting “Homo sapiens, T-cell”, the pIC50 is > 6.30.

Consider `COc1ccc(Nc2ncc(C)c(Nc3ccc4oc(=O)[nH]c4c3)n2)cn1` [II-123, N2-(2-methoxypyridin-5-yl)-5-methyl-N4-(2-oxo-2,3-dihydro-1,3-benzoxazol-5-yl)-2,4-pyrimidinediamine], for which the pIC50 (Homo sapiens, T-cell) is > 6.30.

For the compound `COc1ccc(Nc2ncc(C)c(Nc3ccc4oc(=O)[nH]c4c3)n2)cc1-c1cccnc1` [Compound I-487, 5-(2-(4-methoxy-3-(pyridin-3-yl)phenylamino)-5-methylpyrimidin-4-ylamino)benzo[d]oxazol-2(3H)-one formate salt], for the setting “Homo sapiens, T-cell”, the pIC50 was > 6.30.

Take `Cc1cnc(Nc2cccc(S(C)(=O)=O)c2)nc1Nc1cc(F)c2oc(=O)[nH]c2c1` [Compound I-249, 7-fluoro-5-(5-methyl-2-(3-(methylsulfonyl)phenylamino)pyrimidin-4-ylamino)benzo[d]oxazol-2(3H)-one]: the pIC50 (Homo sapiens, T-cell) is > 6.30.

For the compound `Cc1cnc(Nc2ccc(N3CCN(C(C)C)CC3)nc2)nc1Nc1ccc2oc(=O)[nH]c2c1` [II-136, N2-[2-(4-isopropylpiperazino)pyridin-5-yl]-5-methyl-N4-(2-oxo-2,3-dihydro-1,3-benzoxazol-5-yl)-2,4-pyrimidinediamine], the pIC50 (Homo sapiens, T-cell) is > 6.30.

Regarding `Cc1cnc(Nc2ccc3c(c2)C=CCNC3=O)nc1Nc1ccc2oc(=O)[nH]c2c1` [IV-18, (Z)-5-(5-methyl-2-(1-oxo-2,3-dihydro-1H-benzo[c]azepin-7-ylamino)pyrimidin-4-ylamino)benzo[d]oxazol-2(3H)-one], the pIC50 (Homo sapiens, T-cell) is > 6.30.

On to `Cn1c(=O)oc2cc(Nc3nc(Nc4cccc(S(N)(=O)=O)c4)ncc3F)ccc21` [Compound I-57, N2-((3-aminosulfonyl)phenyl)-N4-(3-methyl-2-oxo-2,3-dihydrobenzo[d]oxazol-6-yl)-5-fluoropyrimidine-2,4-diamine], for which the pIC50 is > 6.30.

As for `Cc1ccc(Nc2ncc(C)c(Nc3ccc4oc(=O)[nH]c4c3)n2)cc1CF` [Compound I-439, 5-(2-(3-(fluoromethyl)-4-methylphenylamino)-5-methylpyrimidin-4-ylamino)benzo[d]oxazol-2(3H)-one], for the setting “Homo sapiens, T-cell”, the pIC50 is > 6.30.

For the compound `CCN(CC)CCNC(=O)c1ccc(Nc2ncc(C)c(Nc3ccc4oc(=O)[nH]c4c3)n2)cc1` [Compound I-127, N-(2-Diethylamino-ethyl)-4-[5-methyl-4-(2-oxo-2,3-dihydro-benzooxazol-5-ylamino)-pyrimidin-2-ylamino]-benzamide], the pIC50 (Homo sapiens, T-cell) was > 6.30.

As for `Cc1cc(N2CCN(C)CC2)ncc1Nc1ncc(C)c(Nc2ccc3oc(=O)[nH]c3c2)n1` [II-143, N2-[4-methyl-2-(4-methylpiperazino)pyridin-5-yl]-5-methyl-N4-(2-oxo-2,3-dihydro-1,3-benzoxazol-5-yl)-2,4-pyrimidinediamine], under “Homo sapiens, T-cell”, the pIC50 is 5.30 to 6.30.

Regarding `Cc1cnc(Nc2ccc(N3CCN(C)CC3)c(CO)c2)nc1Nc1ccc2oc(=O)[nH]c2c1` [Compound I-331, N2-[3-hydroxymethyl-4-(4-methylpiperazino)]phenyl-5-methyl-N4-(2-oxo-2,3-dihydro-1,3-benzoxazol-5-yl)-2,4-pyrimidinediamine], the pIC50 is > 6.30.

For the compound `Cc1cnc(Nc2ccc(N3CCO[C@H](C)C3)nc2)nc1Nc1ccc2oc(=O)[nH]c2c1` [II-135, 5-methyl-N2-[2-(2R-methylmorpholino)pyridin-5-yl]-N4-(2-oxo-2,3-dihydro-1,3-benzoxazol-5-yl)-2,4-pyrimidinediamine], the pIC50 (Homo sapiens, T-cell) is > 6.30.

In the case of `Cc1cnc(Nc2ccc(N3C[C@H]4C[C@@H]3CO4)nc2)nc1Nc1ccc2oc(=O)[nH]c2c1` [II-139, 5-methyl-N2-{2-[(1R,4R)-2-oxa-5-azabicyclo[2.2.1]heptan-5-yl]pyridin-5-yl}-N4-(2-oxo-2,3-dihydro-1,3-benzoxazol-5-yl)-2,4-pyrimidinediamine], the pIC50 (Homo sapiens, T-cell) is > 6.30.

With `Cc1cnc(Nc2cc(C)c(C)c(C)c2)nc1Nc1ccc2oc(=O)n(COP(=O)(OC(C)(C)C)OC(C)(C)C)c2c1` [Compound I-405, N4-{3-[bis(1,1-dimethylethoxy)]phosphinyloxymethyl-2-oxo-2,3-dihydro-1,3-benzoxazol-5-yl}-N2-(3,4,5-trimethyl)phenyl-5-methyl-2,4-pyrimidinediamine], the pIC50 was 5.00 to 5.30.

On to `Cc1cnc(Nc2ccc(C(=O)NC3CC3)cc2)nc1Nc1ccc2oc(=O)[nH]c2c1` [Compound I-134, N-Cyclopropyl-4-[5-methyl-4-(2-oxo-2,3-dihydro-benzooxazol-5-ylamino)-pyrimidin-2-ylamino]-benzamide formate salt], for which the pIC50 (Homo sapiens, T-cell) was > 6.30.

For `Cc1cnc(Nc2cc(C(C)NC(C)C)cc(C(F)(F)F)c2)nc1Nc1ccc2oc(=O)[nH]c2c1` (centres unmarked) [Compound I-473, 5-(2-(3-(1-(isopropylamino)ethyl)-5-(trifluoromethyl)phenylamino)-5-methylpyrimidin-4-ylamino)benzo[d]oxazol-2(3H)-one], the pIC50 (Homo sapiens, T-cell) was > 6.30.

In the case of `Cc1cnc(Nc2cc(F)cc(Cl)c2)nc1Nc1ccc2oc(=O)[nH]c2c1` [Compound I-186, 5-[2-(3-Chloro-5-fluoro-phenylamino)-5-methyl-pyrimidin-4-ylamino]-3H-benzooxazol-2-one], where the note is “Homo sapiens, T-cell”, the pIC50 is > 6.30.

Consider `Cc1cnc(Nc2cccc(S(=O)(=O)NC(C)C)c2)nc1Nc1ccc2oc(=O)[nH]c2c1` [Compound I-114, N4-(benzoxazolin-2-on-5-yl)-N2-[3-N-(i-propyl)aminosulfonylphenyl]-5-methylpyrimidine-2,4-diamine], for which the pIC50 is > 6.30.

With `Cc1cc(Nc2ncc(C)c(Nc3ccc4oc(=O)[nH]c4c3)n2)ccc1C(=O)O` [Compound I-170, 2-Methyl-4-[5-methyl-4-(2-oxo-2,3-dihydro-benzooxazol-5-ylamino)-pyrimidin-2-ylamino]-benzoic acid], under “Homo sapiens, T-cell”, the pIC50 was < 5.00.

As to `Cc1cnc(Nc2cnc3onc(C)c3c2)nc1Nc1ccc2oc(=O)[nH]c2c1` [IV-43, 5-methyl-N2-(3-methylisoxazolo[5,4-b]pyridin-5-yl)-N4-(2-oxo-2,3-dihydro-1,3-benzoxazol-5-yl)-2,4-pyrimidinediamine], the pIC50 (Homo sapiens, T-cell) is > 6.30.

With `Cc1cnc(Nc2cnc(N3CCN4CCC3CC4)c(Cl)c2)nc1Nc1ccc2oc(=O)[nH]c2c1` [II-150, 5-(2-(6-(1,4-diazabicyclo[3.2.2]nonan-4-yl)-5-chloropyridin-3-ylamino)-5-methylpyrimidin-4-ylamino)benzo[d]oxazol-2(3H)-one], the pIC50 (Homo sapiens, T-cell) was > 6.30.

In the case of `Cc1cnc(Nc2ccc(F)c(C(F)(F)F)c2)nc1Nc1ccc2oc(=O)[nH]c2c1` [Compound I-361, N2-(4-fluoro-3-trifluoromethyl)phenyl-5-methyl-N4-(2-oxo-2,3-dihydro-1,3-benzoxazol-5-yl)-2,4-pyrimidinediamine], the pIC50 is > 6.30.

In the case of `Cc1cnc(Nc2cc(F)c(C(F)(F)F)c(F)c2)nc1Nc1ccc2oc(=O)[nH]c2c1` [Compound I-415, N2-(3,5-difluoro-4-trifluoromethyl)phenyl-5-methyl-N4-(2-oxo-2,3-dihydro-1,3-benzoxazol-5-yl)-2,4-pyrimidinediamine], the pIC50 was > 6.30.

For the compound `Cc1cnc(Nc2ccc3ccncc3c2)nc1Nc1ccc2oc(=O)[nH]c2c1` [IV-57, 5-[2-(Isoquinolin-7-ylamino)-5-methyl-pyrimidin-4-ylamino]-3H-benzooxazol-2-one], the pIC50 (Homo sapiens, T-cell) was < 5.00.

For the compound `COc1ccc(Nc2ncc(C)c(Nc3ccc4oc(=O)[nH]c4c3)n2)cc1-c1ccncc1` [Compound I-486, 5-(2-(4-methoxy-3-(pyridin-4-yl)phenylamino)-5-methylpyrimidin-4-ylamino)benzo[d]oxazol-2(3H)-one formate salt], the pIC50 (Homo sapiens, T-cell) is > 6.30.

`Cc1cnc(Nc2cc(O)c3ccccc3c2)nc1Nc1ccc2oc(=O)[nH]c2c1` [IV-56, 5-[2-(4-Hydroxy-naphthalen-2-ylamino)-5-methyl-pyrimidin-4-ylamino]-3H-benzooxazol-2-one]: the pIC50 (Homo sapiens, T-cell) was 5.00 to 5.30.

`COc1cc(Nc2ncc(C)c(Nc3ccc4oc(=O)[nH]c4c3)n2)cc(Cl)c1OC` [Compound I-458, 5-(2-(3-chloro-4,5-dimethoxyphenylamino)-5-methylpyrimidin-4-ylamino)benzo[d]oxazol-2(3H)-one]: the pIC50 (Homo sapiens, T-cell) is > 6.30.

On to `CCN1CCN(c2ncc(Nc3ncc(C)c(Nc4ccc5oc(=O)[nH]c5c4)n3)cc2C(F)(F)F)CC1` [II-110, N4-(benzo[d]oxazolin-2(3H)-one-5-yl)-N2-[2-(4-ethylpiperazin-1-yl)-3-trifluoromethylpyridine-5-yl]-5-methyl-2,4-pyrimidinediamine], for which, where the note is “Homo sapiens, T-cell”, the pIC50 is > 6.30.

For the compound `Cc1cnc(Nc2ccc(NS(C)(=O)=O)cc2)nc1Nc1ccc2oc(=O)[nH]c2c1` [Compound I-52], the pIC50 is > 6.30.

In the case of `Cc1cnc(Nc2cc(C(C)NC3CCC3)cc(C(F)(F)F)c2)nc1Nc1ccc2oc(=O)[nH]c2c1` (centres unmarked) [Compound I-465, 5-(2-(3-(1-(cyclobutylamino)ethyl)-5-(trifluoromethyl)phenylamino)-5-methylpyrimidin-4-ylamino)benzo[d]oxazol-2(3H)-one], the pIC50 (Homo sapiens, T-cell) was > 6.30.

Take `Cc1cnc(Nc2ccc3c(n2)NC(=O)CO3)nc1Nc1ccc2oc(=O)[nH]c2c1` [IV-47, 5-methyl-N4-(2-oxo-2,3-dihydro-1,3-benzoxazol-5-yl)-N2-(2H-pyrido[3,2-b][1,4]oxazin-3 (4H)-one-6-yl)-2,4-pyrimidinediamine]: the pIC50 is < 5.00.
